What was measured:
[1] = test system: RPE1 cells engineered with dox inducible expression of HORMAD1; assay: Colony formation (surviving fraction) with ART558 in RPE1 cells with dox inducible expression of HORMAD1; type: cell-based, human
Procedure: (§1) RPE1 (FIGS. 16-17, A) or SUM159 (FIGS. 16-17, B) cells engineered with dox inducible expression of HORMAD1 were seeded at colony forming density in the presence or absence of dox and treated with the indicated doses of ART558. Colonies were counted and surviving fractions for each condition were calculated.

[2] = test system: SUM159 cells engineered with dox inducible expression of HORMAD1; assay: Colony formation (surviving fraction) with ART558 in SUM159 cells with dox inducible expression of HORMAD1; type: cell-based, human
Procedure: as §1

[3] = test system: SUM149 cells with dox-inducible expression of HORMAD1; assay: CHK1 inhibitor sensitivity, colony forming density, Cell Titer Glow, surviving fraction; type: cell-based, human; conditions: FIGS. 18A, B and D
[4] = test system: HORMAD1 negative RPE-1 cells engineered to have doxycycline inducible expression of HORMAD1; assay: Novobiocin sensitivity, 10 days, cell viability by cell titre glow; type: cell-based, human
Procedure: HORMAD1 negative RPE-1 cells engineered to have doxycycline inducible expression of HORMAD1 were then assessed for their sensitivity to the POLQ inhibitor Novobiocin. Cells were treated with the indicated doses of Novobiocin for 10 days and cell viability assessed by cell titre glow.

[5] = test system: SUM159 cells with dox-inducible expression of HORMAD1; assay: LY2606368 sensitivity in SUM159 cells with dox-inducible HORMAD1 (FIG. 18D); type: cell-based, human; conditions: +DOX vs -DOX
[6] = test system: Breast cancer cell lines characterized as HORMAD1 negative and positive; conditions: data from depmap.org, FIG. 18C; cited from earlier work

Cc1cccc(N(C)C(=O)[C@@H]2[C@H](O)CCN2c2nc(C)cc(C(F)(F)F)c2C#N)c1 [ART558]
sensitivity to inhibitor, +DOX vs -DOX ([1]; RPE1, dox-induced expression of HORMAD1, FIG. 16A): increases sensitivity
cell viability (surviving fraction of colonies) ([1]; RPE1 cells expressing HORMAD1 (+DOX), 5, 10, and 20 μM ART558): significant reduction in cell viability
cell viability (surviving fraction of colonies) ([1]; RPE1 cells in the absence of the inducer (-DOX), below 20 μM ART558): no reduction in cell viability
sensitivity to inhibitor, HORMAD1 expressing vs uninduced controls ([2]; SUM159, +DOX vs uninduced): significantly increased sensitivity
cell viability (surviving fraction of colonies) ([2]; SUM159 cells expressing HORMAD1 (+DOX), 10 and 20 μM ART558): significant reduction in cell viability

C[C@H](CN(C)C)Oc1nc(Nc2cc3cccc(Cl)c3cn2)cnc1C#N [SAR020106]
sensitivity to CHK1 inhibitor, HORMAD1 expressing vs uninduced controls [3]: significantly increased sensitivity

CO[C@@H]1[C@@H](OC(N)=O)[C@@H](O)[C@H](Oc2ccc3c(O)c(NC(=O)c4ccc(O)c(CC=C(C)C)c4)c(=O)oc3c2C)OC1(C)C [Novobiocin]
sensitivity to inhibitor, HORMAD1 expressing vs uninduced controls ([4]; +DOX vs uninduced, difference dose-dependent): significantly increased sensitivity
colony survival ([4]; Novobiocin at concentrations above 50 μM, 10 days): significant and dose-dependent reduction in colony survival

COc1cccc(OCCCN)c1-c1cc(Nc2cnc(C#N)cn2)n[nH]1 [LY2606368]
sensitivity to CHK1 inhibitor upon induction of HORMAD1 expression [5]: increased sensitivity
mean area under the curve (AUC), HORMAD1 positive vs HORMAD1 negative group [6]: lower mean AUC

Cn1cc(-c2[nH]c3cc(NC(=O)[C@H](N)C4CCCCC4)cc4c3c2C=NNC4=O)cn1 [PF47736]
sensitivity to CHK1 inhibitor, HORMAD1 expressing vs uninduced controls [3]: significantly increased sensitivity
